Data on six molecules can be found in ChEMBL document CHEMBL5442219.

What all share (conditions): Compound concentration 10 µM
Assay [1] has as its target Mu-type opioid receptor (Homo sapiens) (UniProt P35372).
Description: PDSP Primary Binding target: OPRM1 - Compounds are tested at 10 uM concentration, plate are incubated at room temperature in the dark for 90 minutes. Reaction are stopped by vacuum filtration onto 0.3% polyethyleneimine soaked filter mats using Filtermate harvester. Scintilation cocktail is then melted onto microwave-dried filters on a hot plate and the radio activity is counted in Microbia counter.
Assay [2] concerns the target T1, Muscarinic acetylcholine receptor M5 (Homo sapiens) (UniProt P08912).
T1 sequence (whole entry): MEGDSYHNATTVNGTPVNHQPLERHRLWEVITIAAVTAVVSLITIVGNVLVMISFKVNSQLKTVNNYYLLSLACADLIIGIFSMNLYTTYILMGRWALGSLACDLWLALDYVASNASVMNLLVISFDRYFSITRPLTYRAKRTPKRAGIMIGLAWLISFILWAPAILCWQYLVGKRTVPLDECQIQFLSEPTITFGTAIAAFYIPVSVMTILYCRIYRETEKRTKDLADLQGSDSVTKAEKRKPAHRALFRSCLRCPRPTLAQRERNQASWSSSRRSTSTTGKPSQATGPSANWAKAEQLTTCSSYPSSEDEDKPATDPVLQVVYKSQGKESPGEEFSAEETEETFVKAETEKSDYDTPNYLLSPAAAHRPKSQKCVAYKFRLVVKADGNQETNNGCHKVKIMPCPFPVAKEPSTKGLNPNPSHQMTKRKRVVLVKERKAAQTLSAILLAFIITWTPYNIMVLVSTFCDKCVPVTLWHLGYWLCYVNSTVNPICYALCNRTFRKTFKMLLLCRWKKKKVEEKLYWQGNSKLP
Description: PDSP Primary Binding target: CHRM5 - Compounds are tested at 10 uM concentration, plate are incubated at room temperature in the dark for 90 minutes. Reaction are stopped by vacuum filtration onto 0.3% polyethyleneimine soaked filter mats using Filtermate harvester. Scintilation cocktail is then melted onto microwave-dried filters on a hot plate and the radio activity is counted in Microbia counter.

For assay [3], the target named is T2, Alpha-1D adrenergic receptor (Homo sapiens) (UniProt P25100).
T2 sequence (whole entry): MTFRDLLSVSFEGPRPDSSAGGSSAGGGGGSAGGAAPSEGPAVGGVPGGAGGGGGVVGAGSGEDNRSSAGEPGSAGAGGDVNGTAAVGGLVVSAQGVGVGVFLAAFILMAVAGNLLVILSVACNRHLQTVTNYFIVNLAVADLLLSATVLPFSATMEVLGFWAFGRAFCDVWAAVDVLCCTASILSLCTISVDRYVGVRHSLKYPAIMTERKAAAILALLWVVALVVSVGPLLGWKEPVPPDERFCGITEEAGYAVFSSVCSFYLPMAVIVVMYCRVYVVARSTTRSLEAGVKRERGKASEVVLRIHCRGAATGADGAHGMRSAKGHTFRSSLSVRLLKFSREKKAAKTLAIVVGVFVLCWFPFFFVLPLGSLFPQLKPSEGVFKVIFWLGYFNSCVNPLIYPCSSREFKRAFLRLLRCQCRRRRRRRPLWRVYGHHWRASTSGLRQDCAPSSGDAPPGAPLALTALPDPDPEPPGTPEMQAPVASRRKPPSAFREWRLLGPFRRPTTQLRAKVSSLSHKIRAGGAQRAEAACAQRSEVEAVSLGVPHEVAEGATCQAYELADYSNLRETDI
Description: PDSP Primary Binding target: ADRA1D - Compounds are tested at 10 uM concentration, plate are incubated at room temperature in the dark for 90 minutes. Reaction are stopped by vacuum filtration onto 0.3% polyethyleneimine soaked filter mats using Filtermate harvester. Scintilation cocktail is then melted onto microwave-dried filters on a hot plate and the radio activity is counted in Microbia counter.

Assay [4] deals with Histamine H1 receptor (Homo sapiens) (UniProt P35367).
Chain of Histamine H1 receptor (Homo sapiens) (P35367 whole entry): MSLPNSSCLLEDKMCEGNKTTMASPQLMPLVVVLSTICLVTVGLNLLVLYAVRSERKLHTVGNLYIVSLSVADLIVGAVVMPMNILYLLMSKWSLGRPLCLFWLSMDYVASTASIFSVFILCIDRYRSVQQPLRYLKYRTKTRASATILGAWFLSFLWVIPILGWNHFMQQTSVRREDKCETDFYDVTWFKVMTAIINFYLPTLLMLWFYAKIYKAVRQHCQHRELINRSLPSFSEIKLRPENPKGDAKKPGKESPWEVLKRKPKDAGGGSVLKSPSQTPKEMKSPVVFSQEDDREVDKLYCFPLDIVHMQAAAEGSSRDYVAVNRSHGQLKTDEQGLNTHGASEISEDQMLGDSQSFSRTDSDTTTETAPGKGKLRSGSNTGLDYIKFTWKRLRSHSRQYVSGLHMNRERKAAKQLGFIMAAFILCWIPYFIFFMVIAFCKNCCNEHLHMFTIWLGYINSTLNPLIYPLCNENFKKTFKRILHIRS
Description: PDSP Primary Binding target: HRH1 - Compounds are tested at 10 uM concentration, plate are incubated at room temperature in the dark for 90 minutes. Reaction are stopped by vacuum filtration onto 0.3% polyethyleneimine soaked filter mats using Filtermate harvester. Scintilation cocktail is then melted onto microwave-dried filters on a hot plate and the radio activity is counted in Microbia counter.
Assay [5] addresses T3, Alpha-1A adrenergic receptor (Homo sapiens) (UniProt P35348).
T3 sequence (whole entry): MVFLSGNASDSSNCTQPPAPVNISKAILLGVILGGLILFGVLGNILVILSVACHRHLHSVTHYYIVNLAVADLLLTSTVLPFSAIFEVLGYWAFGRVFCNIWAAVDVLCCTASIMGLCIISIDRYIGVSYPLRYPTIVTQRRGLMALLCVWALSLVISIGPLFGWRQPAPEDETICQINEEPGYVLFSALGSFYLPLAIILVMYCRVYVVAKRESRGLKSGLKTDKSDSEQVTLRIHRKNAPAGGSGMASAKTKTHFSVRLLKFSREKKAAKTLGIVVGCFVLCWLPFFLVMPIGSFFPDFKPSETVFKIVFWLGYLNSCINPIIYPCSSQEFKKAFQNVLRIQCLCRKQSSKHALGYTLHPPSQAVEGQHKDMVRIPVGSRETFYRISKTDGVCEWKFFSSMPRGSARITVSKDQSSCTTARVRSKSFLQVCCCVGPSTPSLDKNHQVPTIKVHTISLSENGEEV
Description: PDSP Primary Binding target: ADRA1A - Compounds are tested at 10 uM concentration, plate are incubated at room temperature in the dark for 90 minutes. Reaction are stopped by vacuum filtration onto 0.3% polyethyleneimine soaked filter mats using Filtermate harvester. Scintilation cocktail is then melted onto microwave-dried filters on a hot plate and the radio activity is counted in Microbia counter.

Assay [6] concerns the target Histamine H2 receptor (Homo sapiens) (UniProt P25021).
Description: PDSP Primary Binding target: HRH2 - Compounds are tested at 10 uM concentration, plate are incubated at room temperature in the dark for 90 minutes. Reaction are stopped by vacuum filtration onto 0.3% polyethyleneimine soaked filter mats using Filtermate harvester. Scintilation cocktail is then melted onto microwave-dried filters on a hot plate and the radio activity is counted in Microbia counter.
The target of assay [7] is 5-hydroxytryptamine receptor 5A (Homo sapiens) (UniProt P47898).
Chain of 5-hydroxytryptamine receptor 5A (Homo sapiens) (P47898 whole entry): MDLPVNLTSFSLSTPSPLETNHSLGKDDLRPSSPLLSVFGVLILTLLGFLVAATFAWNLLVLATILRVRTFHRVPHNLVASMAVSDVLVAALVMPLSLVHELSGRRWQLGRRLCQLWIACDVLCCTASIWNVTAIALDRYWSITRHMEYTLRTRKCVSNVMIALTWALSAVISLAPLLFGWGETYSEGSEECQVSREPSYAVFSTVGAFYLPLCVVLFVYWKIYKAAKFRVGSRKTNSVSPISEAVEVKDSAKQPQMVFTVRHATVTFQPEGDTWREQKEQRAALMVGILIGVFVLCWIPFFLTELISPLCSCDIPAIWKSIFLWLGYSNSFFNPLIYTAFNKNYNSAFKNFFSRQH
Description: PDSP Primary Binding target: HTR5A - Compounds are tested at 10 uM concentration, plate are incubated at room temperature in the dark for 90 minutes. Reaction are stopped by vacuum filtration onto 0.3% polyethyleneimine soaked filter mats using Filtermate harvester. Scintilation cocktail is then melted onto microwave-dried filters on a hot plate and the radio activity is counted in Microbia counter.
Assay [8] has as its target 5-hydroxytryptamine receptor 1B (Homo sapiens) (UniProt P28222).
Description: PDSP Primary Binding target: HTR1B - Compounds are tested at 10 uM concentration, plate are incubated at room temperature in the dark for 90 minutes. Reaction are stopped by vacuum filtration onto 0.3% polyethyleneimine soaked filter mats using Filtermate harvester. Scintilation cocktail is then melted onto microwave-dried filters on a hot plate and the radio activity is counted in Microbia counter.
Assay [9] has as its target 5-hydroxytryptamine receptor 1D (Homo sapiens) (UniProt P28221).
Description: PDSP Primary Binding target: HTR1D - Compounds are tested at 10 uM concentration, plate are incubated at room temperature in the dark for 90 minutes. Reaction are stopped by vacuum filtration onto 0.3% polyethyleneimine soaked filter mats using Filtermate harvester. Scintilation cocktail is then melted onto microwave-dried filters on a hot plate and the radio activity is counted in Microbia counter.
Assay [10] has as its target T4, 5-hydroxytryptamine receptor 1A (Homo sapiens) (UniProt P08908).
T4 sequence (whole entry): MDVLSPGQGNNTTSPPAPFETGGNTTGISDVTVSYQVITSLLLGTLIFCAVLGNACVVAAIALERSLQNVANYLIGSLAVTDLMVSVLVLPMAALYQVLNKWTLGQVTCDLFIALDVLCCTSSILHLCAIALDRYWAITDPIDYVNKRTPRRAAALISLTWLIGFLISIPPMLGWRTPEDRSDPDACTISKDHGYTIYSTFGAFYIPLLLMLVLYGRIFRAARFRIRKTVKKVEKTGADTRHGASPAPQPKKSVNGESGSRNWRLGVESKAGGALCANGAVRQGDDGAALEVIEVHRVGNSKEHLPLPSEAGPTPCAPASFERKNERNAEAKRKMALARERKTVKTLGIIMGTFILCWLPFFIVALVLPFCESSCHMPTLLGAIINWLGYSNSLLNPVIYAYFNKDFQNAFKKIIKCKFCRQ
Description: PDSP Primary Binding target: HTR1A - Compounds are tested at 10 uM concentration, plate are incubated at room temperature in the dark for 90 minutes. Reaction are stopped by vacuum filtration onto 0.3% polyethyleneimine soaked filter mats using Filtermate harvester. Scintilation cocktail is then melted onto microwave-dried filters on a hot plate and the radio activity is counted in Microbia counter.

The target in assay [11] is Beta-1 adrenergic receptor (Homo sapiens) (UniProt P08588).
Chain of Beta-1 adrenergic receptor (Homo sapiens) (P08588 whole entry, looked up): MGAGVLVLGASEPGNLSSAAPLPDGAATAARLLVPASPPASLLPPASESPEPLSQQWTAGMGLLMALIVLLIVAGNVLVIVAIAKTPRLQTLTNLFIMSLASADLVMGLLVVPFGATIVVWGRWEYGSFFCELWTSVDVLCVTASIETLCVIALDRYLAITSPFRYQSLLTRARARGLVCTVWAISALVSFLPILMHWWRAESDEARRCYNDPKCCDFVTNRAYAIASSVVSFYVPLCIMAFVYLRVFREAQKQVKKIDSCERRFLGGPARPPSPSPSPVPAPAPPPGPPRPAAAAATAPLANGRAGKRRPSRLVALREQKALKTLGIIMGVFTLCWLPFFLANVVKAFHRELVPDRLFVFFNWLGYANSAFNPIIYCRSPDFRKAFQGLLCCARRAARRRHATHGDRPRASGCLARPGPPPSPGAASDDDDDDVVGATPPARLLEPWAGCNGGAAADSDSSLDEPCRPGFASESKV
Description: PDSP Primary Binding target: ADRB1 - Compounds are tested at 10 uM concentration, plate are incubated at room temperature in the dark for 90 minutes. Reaction are stopped by vacuum filtration onto 0.3% polyethyleneimine soaked filter mats using Filtermate harvester. Scintilation cocktail is then melted onto microwave-dried filters on a hot plate and the radio activity is counted in Microbia counter.
Assay [12] has as its target 5-hydroxytryptamine receptor 2A (Homo sapiens) (UniProt P28223).
Description: PDSP Primary Binding target: HTR2A - Compounds are tested at 10 uM concentration, plate are incubated at room temperature in the dark for 90 minutes. Reaction are stopped by vacuum filtration onto 0.3% polyethyleneimine soaked filter mats using Filtermate harvester. Scintilation cocktail is then melted onto microwave-dried filters on a hot plate and the radio activity is counted in Microbia counter.
For assay [13], the target named is Sodium-dependent dopamine transporter (Homo sapiens) (UniProt Q01959).
Chain of Sodium-dependent dopamine transporter (Homo sapiens) (Q01959 whole entry): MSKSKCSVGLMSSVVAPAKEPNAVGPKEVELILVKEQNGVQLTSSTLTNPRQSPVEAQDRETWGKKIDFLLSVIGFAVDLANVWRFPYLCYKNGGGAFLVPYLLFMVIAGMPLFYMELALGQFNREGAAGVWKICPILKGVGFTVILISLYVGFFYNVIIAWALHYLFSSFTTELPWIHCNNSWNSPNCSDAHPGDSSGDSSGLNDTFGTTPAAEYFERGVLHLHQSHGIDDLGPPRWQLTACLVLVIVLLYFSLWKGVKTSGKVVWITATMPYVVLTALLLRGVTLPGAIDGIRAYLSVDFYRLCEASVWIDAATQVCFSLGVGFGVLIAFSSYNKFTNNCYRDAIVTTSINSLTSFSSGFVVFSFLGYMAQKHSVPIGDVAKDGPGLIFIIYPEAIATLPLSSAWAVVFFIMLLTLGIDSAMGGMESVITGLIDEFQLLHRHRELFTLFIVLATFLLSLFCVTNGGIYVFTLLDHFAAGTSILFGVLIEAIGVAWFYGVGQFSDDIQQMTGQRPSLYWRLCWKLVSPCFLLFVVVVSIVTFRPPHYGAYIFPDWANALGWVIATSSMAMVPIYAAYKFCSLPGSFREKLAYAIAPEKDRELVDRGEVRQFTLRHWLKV
Description: PDSP Primary Binding target: SLC6A3 - Compounds are tested at 10 uM concentration, plate are incubated at room temperature in the dark for 90 minutes. Reaction are stopped by vacuum filtration onto 0.3% polyethyleneimine soaked filter mats using Filtermate harvester. Scintilation cocktail is then melted onto microwave-dried filters on a hot plate and the radio activity is counted in Microbia counter.
Assay [14] concerns the target 5-hydroxytryptamine receptor 1E (Homo sapiens) (UniProt P28566).
Description: PDSP Primary Binding target: HTR1E - Compounds are tested at 10 uM concentration, plate are incubated at room temperature in the dark for 90 minutes. Reaction are stopped by vacuum filtration onto 0.3% polyethyleneimine soaked filter mats using Filtermate harvester. Scintilation cocktail is then melted onto microwave-dried filters on a hot plate and the radio activity is counted in Microbia counter.
The target in assay [15] is Histamine H3 receptor (Homo sapiens) (UniProt Q9Y5N1).
Chain of Histamine H3 receptor (Homo sapiens) (Q9Y5N1 whole entry): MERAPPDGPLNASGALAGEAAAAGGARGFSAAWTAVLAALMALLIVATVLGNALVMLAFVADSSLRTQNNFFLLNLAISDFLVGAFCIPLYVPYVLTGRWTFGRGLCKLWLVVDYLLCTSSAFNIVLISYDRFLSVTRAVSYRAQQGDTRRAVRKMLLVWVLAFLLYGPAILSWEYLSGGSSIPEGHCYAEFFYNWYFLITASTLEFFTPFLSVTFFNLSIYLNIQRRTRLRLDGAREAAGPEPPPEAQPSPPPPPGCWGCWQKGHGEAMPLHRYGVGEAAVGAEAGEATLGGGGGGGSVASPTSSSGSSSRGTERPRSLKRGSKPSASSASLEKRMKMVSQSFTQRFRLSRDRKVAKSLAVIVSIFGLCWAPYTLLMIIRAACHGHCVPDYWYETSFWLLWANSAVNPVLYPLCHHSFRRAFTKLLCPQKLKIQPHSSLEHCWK
Description: PDSP Primary Binding target: HRH3 - Compounds are tested at 10 uM concentration, plate are incubated at room temperature in the dark for 90 minutes. Reaction are stopped by vacuum filtration onto 0.3% polyethyleneimine soaked filter mats using Filtermate harvester. Scintilation cocktail is then melted onto microwave-dried filters on a hot plate and the radio activity is counted in Microbia counter.
Assay [16] deals with Sodium-dependent serotonin transporter (Homo sapiens) (UniProt P31645).
Description: PDSP Primary Binding target: SLC6A4 - Compounds are tested at 10 uM concentration, plate are incubated at room temperature in the dark for 90 minutes. Reaction are stopped by vacuum filtration onto 0.3% polyethyleneimine soaked filter mats using Filtermate harvester. Scintilation cocktail is then melted onto microwave-dried filters on a hot plate and the radio activity is counted in Microbia counter.

Chain of Histamine H2 receptor (Homo sapiens) (P25021 whole entry): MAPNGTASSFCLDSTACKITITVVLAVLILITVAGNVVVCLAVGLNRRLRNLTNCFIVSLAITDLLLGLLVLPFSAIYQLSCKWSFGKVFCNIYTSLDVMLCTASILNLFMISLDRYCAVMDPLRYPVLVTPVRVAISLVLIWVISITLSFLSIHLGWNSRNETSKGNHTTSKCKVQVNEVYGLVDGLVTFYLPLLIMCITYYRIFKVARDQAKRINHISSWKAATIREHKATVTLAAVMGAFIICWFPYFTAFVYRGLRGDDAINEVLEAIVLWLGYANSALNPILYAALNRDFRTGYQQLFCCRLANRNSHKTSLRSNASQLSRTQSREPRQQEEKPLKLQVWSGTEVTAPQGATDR
Chain of 5-hydroxytryptamine receptor 1D (Homo sapiens) (P28221 whole entry): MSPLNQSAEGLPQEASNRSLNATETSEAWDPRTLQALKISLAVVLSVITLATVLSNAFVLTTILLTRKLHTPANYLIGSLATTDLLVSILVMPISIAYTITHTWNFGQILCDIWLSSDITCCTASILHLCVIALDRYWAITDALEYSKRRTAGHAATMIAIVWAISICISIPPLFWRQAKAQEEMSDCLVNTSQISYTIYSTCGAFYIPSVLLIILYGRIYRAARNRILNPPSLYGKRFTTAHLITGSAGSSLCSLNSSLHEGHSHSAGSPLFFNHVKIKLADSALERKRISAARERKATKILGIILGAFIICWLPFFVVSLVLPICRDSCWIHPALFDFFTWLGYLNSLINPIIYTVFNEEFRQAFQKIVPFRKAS
Chain of 5-hydroxytryptamine receptor 1B (Homo sapiens) (P28222 whole entry): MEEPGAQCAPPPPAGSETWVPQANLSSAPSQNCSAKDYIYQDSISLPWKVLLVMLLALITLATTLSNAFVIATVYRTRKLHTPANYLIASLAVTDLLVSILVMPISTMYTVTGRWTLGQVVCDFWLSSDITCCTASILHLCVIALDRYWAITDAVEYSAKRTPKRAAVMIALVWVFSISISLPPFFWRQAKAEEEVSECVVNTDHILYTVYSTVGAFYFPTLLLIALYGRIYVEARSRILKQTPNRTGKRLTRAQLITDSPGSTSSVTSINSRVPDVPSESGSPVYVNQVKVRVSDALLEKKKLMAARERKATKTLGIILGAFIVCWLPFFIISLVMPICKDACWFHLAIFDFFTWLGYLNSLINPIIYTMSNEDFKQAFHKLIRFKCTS
Chain of Mu-type opioid receptor (Homo sapiens) (P35372 whole entry): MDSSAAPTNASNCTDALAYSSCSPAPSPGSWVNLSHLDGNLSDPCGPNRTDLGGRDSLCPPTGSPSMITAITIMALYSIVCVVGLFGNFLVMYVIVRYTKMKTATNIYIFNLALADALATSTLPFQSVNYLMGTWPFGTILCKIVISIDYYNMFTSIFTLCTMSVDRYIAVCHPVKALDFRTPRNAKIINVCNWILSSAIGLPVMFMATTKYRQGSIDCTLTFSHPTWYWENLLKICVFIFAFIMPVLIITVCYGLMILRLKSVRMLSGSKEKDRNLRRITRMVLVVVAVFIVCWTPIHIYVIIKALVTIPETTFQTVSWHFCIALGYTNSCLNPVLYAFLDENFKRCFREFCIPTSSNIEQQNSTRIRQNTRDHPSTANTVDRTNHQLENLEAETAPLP
Chain of 5-hydroxytryptamine receptor 1E (Homo sapiens) (P28566 whole entry): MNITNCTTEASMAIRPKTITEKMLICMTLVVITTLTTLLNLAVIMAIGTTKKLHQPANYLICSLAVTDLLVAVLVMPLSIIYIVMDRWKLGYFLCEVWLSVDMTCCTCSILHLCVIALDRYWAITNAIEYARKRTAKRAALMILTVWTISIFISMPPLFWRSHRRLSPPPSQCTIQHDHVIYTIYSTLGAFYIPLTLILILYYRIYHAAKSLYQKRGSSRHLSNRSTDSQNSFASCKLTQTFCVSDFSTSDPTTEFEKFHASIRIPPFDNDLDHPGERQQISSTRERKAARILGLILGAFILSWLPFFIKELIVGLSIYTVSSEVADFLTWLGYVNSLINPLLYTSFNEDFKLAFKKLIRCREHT
Chain of 5-hydroxytryptamine receptor 2A (Homo sapiens) (P28223 whole entry): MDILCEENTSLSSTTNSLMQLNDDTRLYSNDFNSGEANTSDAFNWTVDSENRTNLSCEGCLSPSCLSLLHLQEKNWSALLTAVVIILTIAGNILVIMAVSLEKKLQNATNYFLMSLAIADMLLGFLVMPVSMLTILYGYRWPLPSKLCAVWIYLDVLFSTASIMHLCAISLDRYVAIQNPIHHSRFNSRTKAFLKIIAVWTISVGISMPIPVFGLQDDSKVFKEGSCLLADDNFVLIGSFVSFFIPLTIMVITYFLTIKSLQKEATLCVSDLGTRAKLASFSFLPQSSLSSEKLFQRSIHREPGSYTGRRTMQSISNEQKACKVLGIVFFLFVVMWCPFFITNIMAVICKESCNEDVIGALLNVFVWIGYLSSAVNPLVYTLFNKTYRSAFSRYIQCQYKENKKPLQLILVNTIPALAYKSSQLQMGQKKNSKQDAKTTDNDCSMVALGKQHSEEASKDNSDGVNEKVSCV

Turning to `CCCSc1nc(N[C@@H]2C[C@H]2c2ccc(F)c(F)c2)c2nnn([C@@H]3C[C@H](OCCO)[C@@H](O)[C@H]3O)c2n1`, the inhibition was -2.99% in [1]; 10.8% in [2]; 11.3% in assay [3]; 16.1% in assay [4]; 11.7% in [5]; 3.94% in assay [6]. Moreover, the inhibition was 33.2% in assay [7]; 19.3% in assay [8]; 48.6% in assay [9]; 11.6% in assay [10]; 4.3% in [11]; 10.9% in [12]. Moreover, the inhibition in assay [13] was 75.8%; in assay [14], 3.9%.
As for `Cc1c(OCc2cccc(-c3ccc(C(=O)O)cc3)c2)cc2c(c1C)C(=O)C(C1CCCC1)C2` (stereo not drawn), the inhibition in assay [3] was 60%; in [15], 31.1%; in assay [4] it was -3.97%; in assay [5], 48.4%; in assay [6] it was 25.4%; in assay [8], 4.33%. For the same molecule, the inhibition in [9] is 0.61%; in [10], -4.54%; in [11], -9.82%; in assay [12], 6.01%; in assay [14], 6.04%.
In the case of `COc1ccc(C2(O)OC(=O)C(c3ccc4c(c3)OCO4)=C2Cc2cc(OC)c(OC)c(OC)c2)cc1` (stereo not drawn), the inhibition in assay [1] was -4.54%; in assay [2] it was 28.8%; in assay [3], 11%; in assay [15], -8.58%; in [4], 11.8%; in assay [5], 3.1%. For the same molecule, the inhibition is 24.4% in [6]; 4.51% in [7]; 2.7% in assay [8]; 21.7% in assay [9]; 8.87% in assay [10]; -2.63% in assay [11]. The inhibition in assay [12] was 12.4%; in [13] it was 27.4%; in [14] it was -4.29%.
For the molecule `COc1ccccc1CN[C@H]1C2CCN(CC2)[C@H]1C(c1ccccc1)c1ccccc1`, the inhibition is 9.53% in assay [1]; 56.2% in assay [2]; 11.1% in assay [3]; 11.3% in assay [15]; 40.4% in assay [4]; -7.95% in [5]. Further, the inhibition in [6] was 8.86%; in [7], 19.7%; in assay [8] it was 8.03%; in assay [10], -1.15%; in [11], 17%; in assay [12] it was 13.4%. The inhibition in assay [13] was 40%; in [14], 5%.
`C[C@H](Cc1cc2c(c(C(N)=O)c1)N(CCCO)CC2)NCCOc1ccccc1OCC(F)(F)F`: the inhibition was 38.8% in [1]; 86.5% in assay [3]; 62.9% in assay [4]; 90.7% in [5]; 34.6% in assay [6]; 25.3% in assay [7]. Also, the inhibition is 92.3% in [8]; 90.2% in assay [9]; 100% in assay [10]; 31.1% in assay [11]; 36.2% in assay [12]; 35.5% in [13]. The inhibition in [14] was -4.65%.
Take `C[C@H](CO)Nc1nc(SCc2cccc(Cl)c2F)nc2[nH]c(=O)sc12`: the inhibition in assay [1] was 10.8%; in assay [16], 1.74%; in assay [15] it was 5.16%; in assay [4], 19%; in [5], -7.6%; in assay [6], 40%. Besides, the inhibition was 7.09% in assay [7]; 6.98% in assay [10]; 7.55% in [12]; 8.96% in [13]; -4.99% in assay [14].

As a reminder, the inhibition is the drop in the measured response relative to a control, in per cent.
